# Reference: article PMC7996082, “The translocator protein ligands as mitochondrial functional modulators for the potential anti-Alzheimer agents” (Journal of Enzyme Inhibition and Medicinal Chemistry, 2021)
# How the values were obtained:
# [1] = MTT assay: HT22 cell viability with compound alone; type: cell-based, mouse; conditions: mouse, HT22 cells; HT22 cell viability after 24 h of treatment with 5 μM compound, no Aβ
# Outline: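 Viability is by MTT read-out at 560 nm after 2 h MTT and 2 h acidified Triton X-100/isopropanol solubilisation at 37 °C. Before that, cells plated 24 h earlier (5,000/well) received compound (5 µM solution) for 24 h at 37 °C. Values are referenced to 5 µM DMSO vehicle set as […].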
# [2] = tested on: acute AD model mice (Aβ1-42 ICV injected ICR mice); test: Y-maze spontaneous alternation test in acute AD model mice; type: in vivo, mouse; conditions: 30 mg/kg daily, 6 days; for Recovery of Y-maze spontaneous alternations: i.p.
# Description: The acute AD mice model was prepared by administration of Aβ1-42 solution (10% DMSO/90% PBS) to male ICR mice (6 weeks old, 30 − 33 g) via intracerebroventricular (ICV) injection (Aβ1-42 dose: 500 pmol/mouse) as described previously. The wild type mice (B6C3F1) and double APP/PS1 transgenic mice (Tg AD mice model; APPswe/PSEN1dE9) were purchased from Jackson Laboratory (Bar Harbour, ME, USA). The Tg AD model mice were 11 months old at the beginning of the behaviour test, and were housed for 1 month in a room under controlled temperature and fed ad libitum. The behaviour tests were conducted during daytime in air-controlled and soundproof experiment room. The animal experiments were abided by the guidelines of the Institutional Animal Care and Use Committee of Korea Institute of Science and Technology.
# To the mice of the acute AD model (n = 7 per group), each test compound (test compound in 20% cyclodextrin, 30 mg/kg) was […] injected daily for 6 days. The Y-maze spontaneous alternation test was performed 1 day after the administration of each test compound. The Y maze was made of three equally spaced black plastic arms (40 L × 10 W × 12 H cm) positioned at an equal angle. Each mouse was placed at the end of one arm and allowed to move freely through the maze for 8 min, and the sequence of arm entries was recorded. The arm entry of the mouse was counted when the all four limbs were within an arm. A set of entries into all three arms is considered as a spontaneous alternation. The spontaneous alternation (%) was calculated by the following equation: Spontaneous alternation (%)=100x[number of alternations/(total number of arm entries – 2)]
# We evaluated in vivo activity of 7 and 14 in an acute AD mouse model. The acute AD model mice were generated by the administration of Aβ1-42 peptide (500 pmol) according to the previously reported method, and each compound (30 mg/kg daily) was administered intraperitoneally for 6 days. Piracetam (30 mg/kg daily) was also administered in parallel for comparison. The Y-maze spontaneous alternation tests were performed to measure the recovery of learning and memory deficit in acute AD model mice[38]^,[39]. […] We believe that the treatment of 7 was beneficial for ameliorating Aβ-induced cognitive impairments.
# CYP3A4 = biological target: T1, CYP3A4 (Homo sapiens, UniProt P08684); test: CYP inhibition assay (Vivid CYP450 screening kit); type: in vitro ADME; conditions: 10 μM compound
# T1 construct: purchased Invitrogen, Madison, WI, USA
# T1 sequence (P08684 2-503 limits assumed): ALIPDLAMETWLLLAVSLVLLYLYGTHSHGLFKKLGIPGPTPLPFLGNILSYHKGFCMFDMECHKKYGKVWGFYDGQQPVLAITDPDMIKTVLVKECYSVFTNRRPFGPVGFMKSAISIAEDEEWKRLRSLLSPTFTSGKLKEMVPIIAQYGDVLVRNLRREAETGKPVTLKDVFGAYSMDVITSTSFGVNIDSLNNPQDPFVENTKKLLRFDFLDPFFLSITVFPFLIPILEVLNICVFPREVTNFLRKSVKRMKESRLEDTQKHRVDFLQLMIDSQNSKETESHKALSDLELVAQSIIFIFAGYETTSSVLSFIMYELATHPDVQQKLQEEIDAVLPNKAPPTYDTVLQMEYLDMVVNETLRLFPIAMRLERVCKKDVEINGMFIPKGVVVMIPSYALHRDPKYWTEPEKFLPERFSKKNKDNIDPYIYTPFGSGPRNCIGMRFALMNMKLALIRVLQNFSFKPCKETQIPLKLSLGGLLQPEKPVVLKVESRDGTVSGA
# Description: (§1) Human CYP450 (CYP1A2, 2D6, 2C9, 2C19, and 3A4) activities were determined by using the Vivid® CYP450 screening kit (Invitrogen, Madison, WI, USA) in a clear 96-well plate. Five positive controls were used as 10 mM solutions in MeCN for five different CYP450 enzymes: CYP1A2 (α-naphthoflavone), CYP2D6 (quinidine), CYP2C9 (sulfaphenazole), CYP2C19 (lansoprazole), and CYP3A4 (ketoconazole). Each sample (test compounds, positive inhibition controls, and solvent controls) was added into each well with the Master Pre-Mix [CYP450 BACULOSOMES® Reagent (recombinant human CYP450 isozyme and rabbit NADPHP450 reductase) and Regeneration System (3.3 mM glucose-6-phosphate and 0.3 U/ml glucose-6-phosphate dehydrogenase in 100 mM potassium phosphate, pH 8.0)]. The mixture was incubated for 5 min at 37 °C, and the Vivid® CYP substrates and 0.1 mM NADP^+ buffer were added to initiate the CYP450 enzyme reaction. The % remaining activities of CYP450 were measured after 20 min by using a fluorescent plate reader (Flexstation® 3, Molecular Devices, USA).
# CYP1A2 = biological target: T2, CYP1A2 (Homo sapiens, UniProt P05177); test: CYP inhibition assay (Vivid CYP450 screening kit); type: in vitro ADME; conditions: 10 μM compound
# T2 construct: purchased Invitrogen, Madison, WI, USA
# T2 sequence (P05177 2-516 limits assumed): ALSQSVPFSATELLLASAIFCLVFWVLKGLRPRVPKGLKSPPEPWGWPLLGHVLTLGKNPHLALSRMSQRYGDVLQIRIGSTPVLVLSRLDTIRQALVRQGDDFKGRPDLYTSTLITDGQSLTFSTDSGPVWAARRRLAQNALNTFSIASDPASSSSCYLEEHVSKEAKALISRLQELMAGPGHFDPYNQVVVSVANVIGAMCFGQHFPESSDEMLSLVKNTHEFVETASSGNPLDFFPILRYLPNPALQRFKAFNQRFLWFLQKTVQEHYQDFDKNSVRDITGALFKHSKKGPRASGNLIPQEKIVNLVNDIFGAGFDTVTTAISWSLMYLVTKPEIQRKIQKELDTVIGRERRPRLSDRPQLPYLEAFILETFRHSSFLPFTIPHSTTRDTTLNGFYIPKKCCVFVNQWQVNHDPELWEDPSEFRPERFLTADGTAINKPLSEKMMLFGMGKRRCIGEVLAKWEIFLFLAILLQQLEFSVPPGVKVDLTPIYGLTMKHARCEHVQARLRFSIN
# Description: as §1
# CYP2C9 = biological target: T3, CYP2C9 (Homo sapiens, UniProt P11712); test: CYP inhibition assay (Vivid CYP450 screening kit); type: in vitro ADME; conditions: 10 μM compound
# T3 construct: purchased Invitrogen, Madison, WI, USA
# T3 sequence (P11712 whole entry): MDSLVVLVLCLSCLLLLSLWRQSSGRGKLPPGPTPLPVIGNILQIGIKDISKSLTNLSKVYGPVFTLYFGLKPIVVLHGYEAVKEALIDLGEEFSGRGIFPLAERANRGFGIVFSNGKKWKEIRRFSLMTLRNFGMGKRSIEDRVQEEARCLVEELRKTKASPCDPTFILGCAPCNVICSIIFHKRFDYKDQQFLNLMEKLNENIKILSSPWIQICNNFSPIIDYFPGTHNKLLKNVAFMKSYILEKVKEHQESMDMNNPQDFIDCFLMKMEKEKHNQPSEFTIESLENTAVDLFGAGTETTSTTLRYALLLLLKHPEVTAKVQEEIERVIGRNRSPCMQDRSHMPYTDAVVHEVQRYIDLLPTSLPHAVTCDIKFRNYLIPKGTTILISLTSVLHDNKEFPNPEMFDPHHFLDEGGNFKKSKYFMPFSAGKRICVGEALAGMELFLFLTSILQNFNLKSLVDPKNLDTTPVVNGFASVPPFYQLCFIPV
# Description: as §1
# CYP2D6 = biological target: T4, CYP2D6 (Homo sapiens, UniProt P10635); test: CYP inhibition assay (Vivid CYP450 screening kit); type: in vitro ADME; conditions: 10 μM compound
# T4 construct: purchased Invitrogen, Madison, WI, USA
# T4 sequence (P10635 whole entry): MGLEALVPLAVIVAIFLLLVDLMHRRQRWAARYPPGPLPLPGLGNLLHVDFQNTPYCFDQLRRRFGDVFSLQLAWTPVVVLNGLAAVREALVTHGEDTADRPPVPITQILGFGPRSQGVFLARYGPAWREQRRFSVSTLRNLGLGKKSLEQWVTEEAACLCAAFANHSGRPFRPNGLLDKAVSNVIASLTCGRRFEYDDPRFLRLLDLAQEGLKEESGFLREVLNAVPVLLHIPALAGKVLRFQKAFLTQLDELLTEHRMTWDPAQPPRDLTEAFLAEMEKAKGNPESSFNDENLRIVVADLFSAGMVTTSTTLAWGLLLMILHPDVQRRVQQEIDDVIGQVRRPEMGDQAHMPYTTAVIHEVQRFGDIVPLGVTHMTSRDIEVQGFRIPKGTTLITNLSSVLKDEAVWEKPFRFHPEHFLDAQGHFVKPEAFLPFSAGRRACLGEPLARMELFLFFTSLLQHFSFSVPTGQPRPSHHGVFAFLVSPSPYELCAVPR
# Description: as §1
# [3] = Liver microsomal stability; type: in vitro ADME; conditions: human, liver microsomes, 1 µM compound, 0.5 mg/mL microsomes, 30 min, 37 °C; read-out: Human Liver Microsomal Stability (% remaining after 30 min)
# Description: Liver microsomes (human, dog, rat, and mouse; 0.5 mg/mL) were incubated with 1 µM of each test compound in the presence of potassium phosphate buffer (PPB) for 5 min at 37 °C. A solution of the NADPH regeneration system (#44332000, Oriental Yeast Co., Japan) was added to begin metabolic reactions of liver microsomes. The resulting mixtures were incubated for 30 min at 37 °C, and the reaction was terminated by the addition of a cold MeCN solution containing an internal standard (chlorpropamide). The mixture was separated by centrifugation (14,000 rpm for 5 min at 4 °C), and the supernatant was analysed by LC-MS/MS (Shimadzu Nexera XR system and TSQ vantage; Thermo Scientific).
CYP450 (% remaining Activity at 10 μM) CYP3A4 (CYP3A4) [%],CYP450 (% remaining Activity at 10 μM) CYP1A2 (CYP1A2) [%],CYP450 (% remaining Activity at 10 μM) CYP2C9 (CYP2C9) [%],CYP450 (% remaining Activity at 10 μM) CYP2D6 (CYP2D6) [%],"remaining at 0.5 h, 1 µM [3] [%]",SMILES,"viability at 24 h, 5 µM [1] [%]",Recovery of Y-maze spontaneous alternations [2] [%],Y-maze activity in acute AD model (in words) [2]
72.2,92.0,84.4,117.3,15.3,CCOc1ccc(-n2c(SCC(=O)N3CCN(c4ccccc4)CC3)nc3sc4c(c3c2=O)CCN(C(C)=O)C4)cc1 [Compound 44],97,98,
18.3,143.1,51.1,88.1,32.7,CCOc1ccc(-n2c(SCC(=O)NCc3ccccc3)nc3sc4c(c3c2=O)CCN(C(C)=O)C4)cc1 [Compound 31],109,107,
36.5,97.3,66.4,30.0,73.1,CCOc1ccc(-n2c(SCC(=O)N(C)Cc3ccccc3)nc3sc4c(c3c2=O)CCN(C)C4)cc1 [Compound 50],95,,did not show significant activity
31.0,119.7,93.0,118.5,99.1,CCOc1ccc(-n2c(SCC(=O)NC3CCN(C)CC3)nc3sc4c(c3c2=O)CCN(C(C)=O)C4)cc1 [Compound 30],98,,did not show significant activity
28.1,95.3,99.6,43.1,87.9,CCOc1ccc(-n2c(SCC(=O)NCc3ccccc3)nc3sc4c(c3c2=O)CCN(C)C4)cc1 [Compound 49],99,,did not show significant activity
69.9,69.0,72.5,83.3,49.6,CCOc1ccc(-n2c(SCC(=O)Nc3ccc(OC)c(OC)c3)nc3sc4c(c3c2=O)CCN(C(C)=O)C4)cc1 [Compound 7],95,76,
